Assay results taken from US11376307B2, “Compositions and methods of treating cancer with glycomimetic peptides” (SUSAVION BIOSCIENCES, INC., priority 2018, dated 2022).
“Also recorded” adds a separate entry of the source. Read-outs that look alike come from different tables or passages of the source.

Columns and labels:
ASGPR-1 = target: T1, ASGPR-1 (Homo sapiens, UniProt P07306); settings: ref [49]; cited from earlier work
T1 sequence (P07306 1-291): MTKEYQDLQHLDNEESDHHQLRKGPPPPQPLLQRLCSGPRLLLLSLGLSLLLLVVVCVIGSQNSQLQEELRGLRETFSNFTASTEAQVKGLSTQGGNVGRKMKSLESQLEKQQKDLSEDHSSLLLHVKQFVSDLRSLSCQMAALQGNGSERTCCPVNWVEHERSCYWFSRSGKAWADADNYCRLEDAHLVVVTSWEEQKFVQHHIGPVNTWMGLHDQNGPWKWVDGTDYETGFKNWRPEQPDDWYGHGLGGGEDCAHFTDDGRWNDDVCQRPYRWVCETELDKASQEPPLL

human ASGPR-1 = target: T2, human ASGPR-1 (Homo sapiens, UniProt P07306); assay: Solid-phase binding assay with recombinant receptors
T2 construct: The extracellular domains of receptors, which were fused with the Fc domain of immunoglobulin IgG; purchased R&D Systems
T2 sequence (P07306 62-291 limits assumed): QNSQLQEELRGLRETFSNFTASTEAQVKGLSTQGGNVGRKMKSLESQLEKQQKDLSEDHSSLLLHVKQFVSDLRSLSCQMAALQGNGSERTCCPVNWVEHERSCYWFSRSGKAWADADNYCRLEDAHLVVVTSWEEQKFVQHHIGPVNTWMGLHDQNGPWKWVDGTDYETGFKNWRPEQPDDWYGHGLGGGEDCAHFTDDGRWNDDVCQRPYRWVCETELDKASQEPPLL
Protocol: (§1) Binding Assays Solid-phase binding assays were performed with streptavidin-, protein A/G-, or Nickel-coated microtiter plates (Pierce). His-tagged or Fc-fusion recombinant receptors (R&D Systems, Minneapolis, Minn.) were reconstituted in PBS. Sufficient receptors were added to wells to saturate the coating. His-tagged receptors were added to each well at a 5-fold excess over the stated capacity of the Ni coating to minimize non-specific binding of the peptide. Wells were washed three times with binding buffer (25 mM Tris HCl, pH 7.4, 150 mM NaCl, 0.05% Tween-20) to remove unbound receptor and 50 μL of 2 μM biotinylated peptide in binding buffer were added and allowed to incubate for 1 h. The wells were washed four times with binding buffer and then incubated with 50 μL of 1 μg/mL streptavidin conjugated with peroxidase (Sigma-Aldrich) for 1 h. The wells were washed five times with binding buffer and 50 μL of peroxidase substrate (1-Step™ Ultra TMB, Pierce) were added. After several minutes to allow color development, the reaction was stopped with 50 μL 1 M H3PO4 and absorbance was measured at 450 nm. Bound streptavidin was quantitated by the specific activity of peroxidase (absorbance/ng protein conjugate/min) under the conditions of the assay.
(§2) Solid-phase binding assays were performed with recombinant human receptors. Three variations of the binding assay were used in this study, all of which allowed the arms of the tetravalent peptide to have full flexibility. (i) Biotinylated peptide was bound in microtiter wells coated with streptavidin and incubated with recombinant human receptors. After extensive washing, the bound receptor was measured by peroxidase conjugated to a receptor-specific antibody. (ii) The extracellular domains of receptors, which were fused with the Fc domain of immunoglobulin IgG, were bound in wells coated with protein A/G. Biotinylated peptide was incubated with the receptors and, after extensive washing, bound peptide was measured with streptavidin conjugated with peroxidase. Or (iii), recombinant receptors with a poly-His tag were bound to Nickel-coated wells and incubated with biotinylated peptide. svL4 and sv6D contain His residues (FIGS. 1A, 1C) and can bind to the Ni coating, which was minimized by adding sufficient poly-His-tagged receptor to saturate the Ni coating.

[1] = test system: ID8 ovarian cancer cell line; assay: Murine model of ovarian cancer, sv6D and paclitaxel
Protocol: Combination study of sv6D and paclitaxel. (FIG. 8A) Female C57BL/6 mice were implanted with ID8 ovarian cancer cell line. […] Body weights of mice are shown as measured on day 58, after two weeks of alternate-day subcutaneous treatment with sv6D (0.1 nmol/g) or 3 intraperitoneal doses (days 45, 47 and 49) of 18 μg/g paclitaxel in cremophor. […] (FIG. 8B) Alternate-day injections of sv6D were initiated on day 50 with peptide alone or on day 100 to mice that were previously treated with paclitaxel between day 45 and 49. […] (FIG. 8C) Kaplan-Meier survival curves for mice treated with paclitaxel, sv6D or a combination of the two in which alternate-day subcutaneous injections of sv6D was started 50 days after paclitaxel treatment.
Cells of an ovarian epithelial cancer line, ID8 [110], were implanted into the peritoneal cavity of female C57BL/6 mice at a dose of 6×10^6 cells. All animals were weighed at least weekly throughout these studies. Accumulation of ascites was monitored by increase in body weight, and animals were euthanized when end-stage behavior was expressed. […] Kaplan-Meier survival curves were analyzed by the Mantel-Cox log-rank test.
A murine ovarian cancer cell line (ID8) was implanted into the peritoneal cavity of C57BL/6 female mice on day 0. […] Progression of the cancer was monitored by body weight of animals as an indication of ascites accumulation.

peritoneal immune cells = assay: Expansion of peritoneal cells after subcutaneous injection, flow cytometry; format: in vivo, C57BL/6 mice; settings: 1 nmol/g s.c. on days 0, 2, 4; cells 24 h after each injection
Protocol: FIGS. 7A-7D. Expansion of peritoneal cells in C57BL/6 mice. Mice were injected subcutaneously at a dose of 1 nmol/g body weight of svL4, sv6D or svC1. Cells in each population recovered in a peritoneal lavage are expressed as cell counts (in thousands). Cells from three mice in each treatment group were pooled for analysis. The number of cells in each population was normalized to the average recovery of total cells from all groups. For each cell type, the left-hand, middle and right-hand set of bars represent samples from mice treated with svL4, sv6D or svC1, respectively. Mice were injected on days 0, 2 and 4, and cells were collected 24 h after each injection. Day 1, open bar; day 3, grey bar; day 5, black bar. Populations that express activation markers are indicated by an asterisk.
Flow Cytometry Healthy C57BL/6 male mice, 10 weeks old, were injected subcutaneously with peptides on alternate days. Peritoneal cells were isolated from mice 24 h after dosing by injecting ice cold PBS (containing 3% FBS) into the peritoneal cavity, gently massaging the abdomen, and then collecting the fluid, which was transferred into K2EDTA-treated tubes for evaluation of specific biomarkers. Cells from three mice in each group were pooled, counted and divided among FACS tubes (1×10^6 cells per tube). Cells were washed once in PBS containing 3% FBS, then stained with 0.25 to 1 μg of fluorescently conjugated antibody per 10^6 cells in 100 μL of buffer as recommended by the manufacturer (Table 1).
Cells were incubated with the antibodies for 30 min at 4° C. in the dark. Following staining, the cells were washed two times with PBS/3% FBS and immediately analyzed with a MACSQuant flow cytometer (Miltenyi Biotech, Inc., San Diego, Calif.). Compensation was performed using single stain tubes for each color present in the analysis as well as an unstained control sample. Collection of flow cytometric data and analysis with FlowJo software, version 10.0.6 (FlowJo, LLC, Ashland, Oreg.) were performed by Biomodels LLC (Watertown, Mass.).
To examine whether increases occurred in mature immune cells, peritoneal cells from Balb/c and C57BL/6 mice were analyzed by flow cytometry after cells were stained with the markers listed in Table 1. […] To explore this observation more extensively, svL4 or sv6D was injected into C57BL/6 mice on day 0, 2 or 4. Peritoneal cells were examined by flow cytometry 24 h after each injection. Shown in FIGS. 7A-7D are results expressed as cell counts for F4/80 CD11b CD86 (mature, active macrophages); CD11c (DCs); CD11c CD86 (activated DCs); CD4 CD69 (activated T cells); CD8 CD69 (activated cytotoxic T cells); NK1.1 CD3^+ CD69 (activated NKT cells); NK1.1 CD3^− CD69 (activated NK cells); CD19 (B cells); and CD19 CD73 CD80 CD273 (memory B cells). The numbers of these mature, activated cells continued to increase with each injection.

[2] = target: T3, recombinant human CLEC10A (Homo sapiens, UniProt Q8IUN9); assay: Solid-phase binding assay with recombinant receptors; settings: biotinylated tetravalent peptide
T3 construct: The extracellular domains of receptors, which were fused with the Fc domain of immunoglobulin IgG; purchased R&D Systems
T3 sequence (Q8IUN9 61-316 limits assumed): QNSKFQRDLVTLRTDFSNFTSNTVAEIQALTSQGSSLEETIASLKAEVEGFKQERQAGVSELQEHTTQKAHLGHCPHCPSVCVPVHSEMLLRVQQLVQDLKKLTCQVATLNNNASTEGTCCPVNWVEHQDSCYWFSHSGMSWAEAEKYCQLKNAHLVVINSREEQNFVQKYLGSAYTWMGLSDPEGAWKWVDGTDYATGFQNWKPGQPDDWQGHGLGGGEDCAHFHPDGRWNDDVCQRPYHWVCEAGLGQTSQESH
Protocol: as §1, §2

STING protein = STING protein (Homo sapiens, UniProt Q86WV6); settings: refs [108,109]; cited from earlier work
Sequence of STING protein (Q86WV6 whole entry): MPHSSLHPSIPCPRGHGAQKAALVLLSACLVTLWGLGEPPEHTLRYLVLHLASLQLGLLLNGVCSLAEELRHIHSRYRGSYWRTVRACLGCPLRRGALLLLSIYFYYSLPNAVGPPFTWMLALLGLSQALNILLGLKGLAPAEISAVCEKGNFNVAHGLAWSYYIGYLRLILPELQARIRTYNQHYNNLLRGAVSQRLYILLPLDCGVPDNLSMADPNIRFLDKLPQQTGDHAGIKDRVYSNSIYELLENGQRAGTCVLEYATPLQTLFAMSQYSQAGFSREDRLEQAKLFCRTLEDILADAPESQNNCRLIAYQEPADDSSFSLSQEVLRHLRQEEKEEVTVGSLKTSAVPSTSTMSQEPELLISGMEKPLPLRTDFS

STING pathway = assay: THP1-Dual reporter cells, secreted luciferase; format: cell-based, human; settings: medium of THP1 reporter cells
Protocol: FIGS. 12A-12B. Conjugation with cyclic dinucleotide. (FIG. 12A) The cyclic dinucleotide, c[G(2′,5′)p-2′-AHC-A(3′,5′)p] (CDN, AHC=6-aminohexylcarbamoyl), was conjugated to N-acetylated-sv6D by a carbodiimide reaction. (FIG. 12B) The conjugate delivers the activation factor at much lower concentrations. Human THP1 monocytes, engineered to detect activation of the type 1 IFN pathway (THP1-Dual™ Cells, InvivoGen, San Diego, Calif.), were incubated 20 hours with sv6D in RPMI 1640 medium containing 10% fetal bovine serum after adding the peptide CDN conjugate. The medium was recovered and then incubated with the luciferase detection reagent (Quanti-Luc™, InvivoGen) to assay for luciferase secreted in response to activation of the STING pathway. Photons were detected with a spectrofluorometer. […] The conjugate targets M2 macrophages and tumor cells that express CLEC10A and thus would produce IFN-β within the tumor microenvironment. […]
The ability of sv6D-CDN conjugates to induce activation of the STING pathway for production of type 1 interferons (IFN-α/β) was tested by incubating human THP1 monocytes that were genetically engineered as reporter cells (InvivoGen, San Diego, Calif.), with the conjugate. […] However, luciferase was detected in the medium of cells incubated with nanomolar concentrations of sv6D-CDN conjugate.

[3] = ref [90], cited from earlier work
[4] = photodynamic, read-out: IC50 concentration for cell killing

Molecule: Asialofetuin: a multi-glycosylated protein [reference compound]
- IC50 (ASGPR-1): 45600 ± 2700 nM
- Inhibition of binding of svL4 to ASGPR-1 (human ASGPR-1; asialofetuin at 75 μM, svL4 0.2 μM): 53%

Molecule: CC(=O)O[C@H]1C(=O)[C@@]2(C)[C@H]([C@H](OC(=O)c3ccccc3)[C@]3(O)C[C@H](OC(=O)[C@H](O)[C@@H](NC(=O)c4ccccc4)c4ccccc4)C(C)=C1C3(C)C)[C@]1(OC(C)=O)CO[C@@H]1C[C@@H]2O [paclitaxel, reference compound]
- Median survival ([1]; single agent, sv6D 0.1 nmol/g, control median end-stage day 122): approximately 141 days
- Body weight (ascites accumulation) after two weeks of treatment ([1]; treatment from day 45, sv6D 0.1 nmol/g s.c. alternate days, paclitaxel 18 μg/g i.p. x3): had not significantly increased

Molecule: svC1: subset of svL4: the N-terminal half of the sequence; does not bind CLEC10A, used as control (VQATQSGGGS)
- Change in mature, active peritoneal immune cell populations (peritoneal immune cells): did not increase significantly
- Binding to CLEC10A [2]: near the level of blank wells; also recorded: does not bind
- Binding to ASGPR-1 (human ASGPR-1; biotinylated tetravalent peptide): near the level of blank wells

Molecule: c[G(2′,5′)p-2′-AHC-A(3′,5′)p] [CDN]
- Kd (STING protein): ~5000 nM
- Concentration range needed to detect luciferase activity (STING pathway): micromolar concentrations
- Concentration range needed to detect luciferase activity (STING pathway; listed as cyclic dinucleotides): micromolar range

Molecule: purpurin-18
- IC50 [3, 4]: ~10 nM

Molecule: chlorin p6
- IC50 ([3]; exposed to red light, read-out: IC50 for photosensitized cell killing): 30 nM
- IC50 [3, 4]: ~10 nM
